The values below come from patent publication US9624758B2, “Use of oligo-quaternary compositions to increase scale inhibitor lifetime in a subterranean formation” (Ecolab USA Inc., priority 2012, dated 2017).

The term EC50 denotes the concentration at which the effect is half-maximal. The term IC50 denotes the concentration that inhibits the measured activity by half. The term LC50 denotes the concentration lethal to half of the exposed cells or organisms.

Where two headings read alike, the source gives them in different places. Bounds are passed on as bounds.

Data set [1] can be described thus: Coreflood on Bandera outcrop cores. Conditions: post versus pre treatment. As for the experimental part: Two corefloods were carried out simultaneously on two Bandera outcrop cores (1.5″ diameter by 3″ length), using a Scaled Solutions dual coreflood apparatus. The composition of these cores is set out in the table below:
Both cores were wrapped with PTFE tape and cased in heat shrink tubing prior to insertion into a Viton sleeve and mounted in a Hassler type core holder with a confining pressure of 1200 psi. Both cores were then flushed with synthetic brine at 1 mL/min for at least 2 hours and until the differential pressure was stable. Brine was flushed at 0.5 mL/min overnight.
Both cores were saturated with synthetic brine under ambient conditions in the forward direction at 1 mL/min for 10 minutes, 2 mL/min for 10 minutes, 3 mL/min for 10 minutes, and 4 mL/min for 2 hours and until the differential pressure was stable. After a stable differential pressure was achieved, the permeability to brine was measured in the forward flow by flooding at 4, 3, 2, 1 mL/min at room temperature.
Brine was then injected into both cores in the forward direction at 1 mL/min until the oven reached a temperature of 80° C. […] Following plug saturation, the permeability of each core to synthetic brine was measured in the forward flow by flooding at 4, 3, 2, and 1 mL/min at 80° C. […]
Both cores were injected with synthetic brine at 2 mL/min with effluent samples being collected. The samples were analyzed by ICP. […]

Data set [2] can be described thus: Compatibility test of scale inhibitor solutions with Product A solution in synthetic brine. It counts as physicochemical. More on the design: key: C—Clear; P—Precipitate. The note with it: for Clarity of Mixed Solutions 10:90: ratio 10:90; for Clarity of Mixed Solutions 50:50: ratio 50:50. An excerpt: Individual solutions (Solutions 1B through 1G) of 10% Product B, C, D, E, F and G, respectively, in a synthetic brine (see the table below showing the synthetic brine composition) were mixed with a 10% solution (Solution 2) of Product A in the synthetic brine. The two sets of solutions were mixed with Solution 2 (i.e., each of Solutions 1B through 1G were mixed with Solution 2) at ratios of 10:90, 30:70, 50:50, 70:30 and 90:10 to indicate that no precipitate would form at any concentration in the mixing concentration range from 10:90 to 90:10. These compatibility screening tests indicate that it is unlikely for any incompatibility to be experienced during deployment and flow back of a squeeze treatment. Any incompatibilities under ambient conditions were observed visually from solution clarity and/or precipitate. The samples were then heated to the test temperature (80° C.) and any further incompatibilities after 2 and 24 hours recorded.

The next data set deals with Daphnia Magna. Put plainly: Toxicity: EC50 Daphnia Magna. In kind it is in vivo. As for the experimental part:
(§1) Product A was evaluated for toxicity using various tests.

The subject of a further data set is Rat. Put plainly: Toxicity: LC50 Rat. Conditions: in vivo. Here is the method:
as §1

The next data set in a line: Biodegradation. As for the experimental part: as §1
The format of data set [3] is cell-based. As for the experimental part: as §1
A further data set can be described thus: Microtox. In kind it is cell-based. As for the experimental part: as §1
A further data set concerns Algae. Description: Toxicity: EC50 Algae. Here is the method:
as §1

Data set [4] is described as follows: Toxicity: LC50 Fathead Minnow. The note with it: in vivo. Here is the method: as §1
Where [5] appears, read: 10% scale inhibitor solution : 10% Product A solution in synthetic brine, ambient, then 80° C. 2 and 24 hours.
Where [6] appears, read: 10% solutions in synthetic brine, with Product A.
[7] abbreviates: ratio 30:70 (second column), 10% solutions in synthetic brine, with Product A.
Setting [8] is: ratio printed 30:70 (fourth column), 10% solutions in synthetic brine, with Product A.

Take `O=P(O)(O)CN(CCCCCCN(CP(=O)(O)O)CP(=O)(O)O)CCCCCCN(CP(=O)(O)O)CP(=O)(O)O` [Product B, BHMT phosphonate]: the “Permeability Recovery” value in [1] worked out at 75%. Moreover, the “Clarity of Mixed Solutions 10:90” value in data set [2] (setting [5]) and in data set [2] (setting [6]) was “C” each time. Besides, the “Clarity of Mixed Solutions 30:70” value in data set [2] (setting [7]) and in data set [2] (setting [8]) was “C” each time. In [2] (setting [6]), the “Clarity of Mixed Solutions 50:50” value is listed as “C”.

Turning to `C[N+](C)(C)CC(O)C[N+](C)(C)C.[Cl-].[Cl-]` [Product A, 1,3-propandiaminium, 2-hydroxy-N,N,N,N′,N′,N′-hexamethyl-, dichloride], the 50% effective concentration (EC50) with Daphnia Magna is 186 µg/mL; with Algae it was 1500 µg/mL. Moreover, the “LC50 Rat” value with Rat was 4,000 mg/kg. The same compound returned a Biodegradation in the data set “Biodegradation” of 9%. The “Ames Test” value in [3] is listed as “Non-”. Also, the 50% inhibitory concentration (IC50) was more than 4000 µg/mL in the data set “Microtox” (5 min, read-out: 5-min IC50 (95% CI)) and more than 4000 µg/mL in the data set “Microtox” (0.25 h, 15 min, read-out: 15-min IC50 (95% CI)). In addition, the LC50 in data set [4] is more than 1000 µg/mL.

DETA phosphonate [Product C]: the “Clarity of Mixed Solutions 10:90” value in [2] (setting [5]) and in data set [2] (setting [6]) was “C” throughout. Further, the “Clarity of Mixed Solutions 30:70” value in data set [2] (setting [7]) and in [2] (setting [8]) was “C” each time. In addition, the “Clarity of Mixed Solutions 50:50” value in [2] (setting [6]) is given as “C”.
